From US9637496B2, “Substituted 7-azabicycles and their use as orexin receptor modulators” (priority 2013, dated 2017)
Like-named read-outs stand apart in the source and are kept apart here.

Assays:
rat orexin 1 receptor = rat orexin 1 receptor (Rattus norvegicus (Rat), UniProt P56718); assay: Rat orexin 1 receptor radioligand binding (competitive binding, HEK293 membranes)
human orexin 1 receptor = human orexin 1 receptor (Homo sapiens (Human), UniProt O43613); assay: Human orexin 1 receptor radioligand binding (competitive binding, CHO membranes)
Chain of human orexin 1 receptor (O43613 whole entry): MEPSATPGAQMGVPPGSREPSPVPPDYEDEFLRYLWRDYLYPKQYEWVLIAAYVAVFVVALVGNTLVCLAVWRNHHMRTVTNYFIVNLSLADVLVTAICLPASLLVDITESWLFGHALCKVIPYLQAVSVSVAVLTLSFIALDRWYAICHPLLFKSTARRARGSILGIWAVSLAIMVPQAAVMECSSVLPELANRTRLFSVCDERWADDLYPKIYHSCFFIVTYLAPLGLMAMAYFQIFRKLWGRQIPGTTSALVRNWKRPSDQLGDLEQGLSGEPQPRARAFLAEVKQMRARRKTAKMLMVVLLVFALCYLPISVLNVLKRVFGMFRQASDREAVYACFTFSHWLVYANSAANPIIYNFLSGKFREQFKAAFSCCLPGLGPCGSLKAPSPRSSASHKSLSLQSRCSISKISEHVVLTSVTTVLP

human orexin 2 receptor = human orexin 2 receptor (Homo sapiens (Human), UniProt O43614); assay: Human orexin 2 receptor radioligand binding ([3H]-EMPA competition, HEK293 membranes)
Chain of human orexin 2 receptor (O43614 whole entry): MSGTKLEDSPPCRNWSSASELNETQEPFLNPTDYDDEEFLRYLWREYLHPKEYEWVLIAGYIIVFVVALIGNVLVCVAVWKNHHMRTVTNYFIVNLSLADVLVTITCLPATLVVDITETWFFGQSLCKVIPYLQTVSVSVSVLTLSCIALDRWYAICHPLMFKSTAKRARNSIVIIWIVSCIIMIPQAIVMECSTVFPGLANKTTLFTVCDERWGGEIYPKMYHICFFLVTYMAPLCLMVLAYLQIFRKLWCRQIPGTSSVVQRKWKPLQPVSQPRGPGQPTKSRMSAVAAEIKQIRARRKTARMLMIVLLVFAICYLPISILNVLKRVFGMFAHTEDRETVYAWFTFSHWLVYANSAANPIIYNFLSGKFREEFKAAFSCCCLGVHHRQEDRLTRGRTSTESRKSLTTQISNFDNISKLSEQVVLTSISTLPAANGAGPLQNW

[1] = human orexin 2 receptor, Table 2, averages from between 2-20 runs, read-out: hOX2 Ki

Chain of rat orexin 1 receptor (P56718 whole entry): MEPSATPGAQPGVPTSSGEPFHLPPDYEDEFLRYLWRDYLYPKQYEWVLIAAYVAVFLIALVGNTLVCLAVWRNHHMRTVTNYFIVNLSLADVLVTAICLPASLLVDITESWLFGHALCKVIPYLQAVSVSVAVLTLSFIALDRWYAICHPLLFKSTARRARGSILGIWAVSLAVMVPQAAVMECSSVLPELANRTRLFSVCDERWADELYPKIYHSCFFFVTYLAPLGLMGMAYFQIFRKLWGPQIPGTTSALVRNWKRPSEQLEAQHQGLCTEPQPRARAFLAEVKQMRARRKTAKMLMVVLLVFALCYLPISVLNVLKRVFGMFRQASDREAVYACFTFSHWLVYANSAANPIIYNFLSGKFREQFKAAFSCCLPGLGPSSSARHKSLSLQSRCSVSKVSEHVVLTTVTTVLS

Structure (SMILES)	Ki (rat orexin 1 receptor) [nM]	Ki (human orexin 1 receptor) [nM]	Ki (human orexin 2 receptor) [nM]	Ki (rat orexin 1 receptor; read-out: rOX1 Ki) [nM]	Ki (human orexin 1 receptor; read-out: hOX1 Ki) [nM]	Ki (human orexin 2 receptor; [1]) [nM]	Ki (rat orexin 1 receptor; rat orexin 1 receptor, Table 2, averages from between 2-20 runs, read-out: rOX1 Ki) [nM]	Ki (human orexin 1 receptor; human orexin 1 receptor, Table 2, averages from between 2-20 runs, read-out: hOX1 Ki) [nM]
O=C(c1cccc(F)c1-c1ncc(F)cn1)N1C2CCC1C(Oc1ccc(C(F)(F)F)cn1)C2 (racemic) [Example 434]	134	172	> 10000	–	–	–	–	–
O=C(c1ccccc1-c1ncccn1)N1[C@@H]2CC[C@H]1[C@H](Nc1ncc(C(F)(F)F)cn1)C2 [Example 417, (2-(pyrimidin-2-yl)phenyl)((1S,2R,4R)-2-((5-(trifluoromethyl)pyrimidin-2-yl)amino)-7-azabicyclo[2.2.1]heptan-7-yl)methanone]	–	–	–	52	41	1900	–	–
O=C(c1ccccc1-c1ccccc1)N1[C@@H]2CC[C@H]1[C@H](Nc1cnc(C(F)(F)F)cn1)C2 [Example 407, [1,1′-biphenyl]-2-yl((1S,2R,4R)-2-((5-(trifluoromethyl)pyrazin-2-yl)amino)-7-azabicyclo[2.2.1]heptan-7-yl)methanone]	–	–	–	18	17	104	–	–
O=C(c1c(F)cccc1-c1ncccn1)N1C2CCC1C(Oc1ccc(C(F)(F)F)cn1)C2 (racemic) [Example 431]	143	180	5100	–	–	–	–	–
O=C(c1cc(F)ccc1-n1nccn1)N1[C@@H]2CC[C@H]1[C@H](Nc1ccc(C(F)(F)F)cn1)C2 [Example 369, (5-fluoro-2-(2H-1,2,3-triazol-2-yl)phenyl)((1S,2R,4R)-2-((5-(trifluoromethyl)pyridin-2-yl)amino)-7-azabicyclo[2.2.1]heptan-7-yl)methanone]	–	–	–	–	–	629	67	45
O=C(c1cccc(F)c1-n1nccn1)N1[C@@H]2CC[C@H]1[C@H](Nc1cnc(Br)cn1)C2 [Example 311, ((1S,2R,4R)-2-((5-bromopyrazin-2-yl)amino)-7-azabicyclo[2.2.1]heptan-7-yl)(3-fluoro-2-(2H-1,2,3-triazol-2-yl)phenyl)methanone]	–	–	–	17	21	1000	–	–
